# Assay results reported in patent publication US4954637A, “Certain maleimide-N-alkylenecarboxylate-ortho-nitrobenzenesulfonic acid esters and derivatives useful for coupling biological materials” (Cetus Corporation, priority 1987, dated 1990).
# Where two headings read alike, the source gives them in different places.
# How the values were obtained:
# polylysine = conditions: over a 5 minute period; pH 7.4, room temperature
# Description: A total of 25 mg (0.34 μmoles) of polylysine obtained from Sigma Chemical Co. (Sigma) was succinylated to approximately 20 amines remaining unsuccinylated per polylysine molecule, and redissolved in 0.5 ml of 0.1M phosphate buffer at pH 7.4 to yield an amine concentration of 1.0×10^-2 M. Five mg (1.0×10^-5 moles) of the biotin HNSA ester was dissolved in 0.5 ml of the polylysine solution. The mixture was stirred at room temperature to initiate reaction. Ten μl aliquots were removed from the incubating solution at timed intervals and were each diluted into 1.0 ml of 0.01M phosphate buffer at pH 7.0. The spectrum of each diluted aliquot was measured and the absorbance at 406 nm recorded.
# cells = conditions: vs biotin-p-nitrophenyl ester; fluoresceinated avidin; cited from earlier work
# bovine serum albumin = conditions: pH 8.5; vs same ester of N-hydroxysuccinimide; cited from earlier work
# [1] = test system: sheep red blood cells (SRBC); assay: Labelling of sheep red blood cells, Coulter EPICS V Cytofluorometer; format: cell-based; conditions: excitation at 360 nm
# Description: Dansyl-sac-HNSA ester was prepared as described in Example 1A using molar equivalents of HNSA, dicyclohexylcarbodiimide and dansyl-ε-aminocaproic acid (from Sigma Chemicals). For use in coupling to sheep red blood cells (SRBC) the dansyl-sac-HNSA ester (50 mg) was prepared in 7 ml of 0.28M cacodylate buffer, pH 6.9.
# Sheep red blood cells were washed 4 times (400×g. 8 minutes) in G-PBS buffer (5% α-D-glucose w/v in PBSCa-Mg). To 1 ml of packed red blood cells was added the 7 ml of dansyl-sac-HNSA ester dropwise with gentle mixing for 10 minutes at room temperature. The reaction was done in foil-wrapped glassware to protect against photodecomposition. Following the reaction the cells were washed in cold G-PBS buffer containing 1% heat inactivated (56° C., 30 minutes) FCS (fetal calf serum) until the supernatants were colorless (a minimum of 4 washes).
# The dansyl-sac-HNSA labelled SRBC were monitored using a Coulter EPICS V Cytofluorometer immediately after labeling and at 24 hours. […] This translates to an increase in intensity 720 times over unlabeled cells.
# [2] = test system: bovine serum albumin (BSA); conditions: for Concentration of Ester: diluted aliquot
# Description: A total of 22 mg ([…]) of BSA (of molecular weight 66,296) was dissolved in 2.0 ml of 0.01M phoshate buffer at pH 7.5 to yield a total amino concentration of 1.0×10^-2 moles per liter (assuming 59 lysines/BSA molecule). A calculated amount mg. […] The reaction was carried out at room temperature. […]
# It was found at 15 minutes of reaction time that 2.6×10^-3 moles/1 of the ester had reacted and thus 25.9% of the 59 ε-amino groups of BSA were presumably substituted. Thus, the product contained 16 mal-sac groups per molecule.
# streptavidin = test system: streptavidin; parameters: species or system Streptomyces avidinii; conditions: over the period measured; pH 7.4, room temperature
# Description: A total of 0.26 mg (4.3×10^-3 μmoles) of streptavidin purified from Streptomyces avidinii by the method of Hoffman et al., PNAS. 77, 4666-4668 (1980) was dissolved in 1.0 ml of phosphate buffered saline at pH 7.4 to yield a total amine concentration of 6.93×10^-5 M (16NH2 /streptavidin). […] Good separation was achieved between the protein and the excess HNSA and unreacted HNSA ester. […] In this case 79% of the amino groups on streptavidin (12.9 out of 16.0) reacted.
# [3] = test system: Horseradish peroxidase (HRP); conditions: over a 30 minute period; pH 7.0, room temperature
# biotinylated polylysine = assay: Coupling of mal-sac-HNSA to biotinylated polylysine, then to HRP-SH; conditions: over a 30 minute period; pH 7.4, room temperature
# Description: Biotinylated Polylysine (0.6 ml; 73,000 D average mol. wt.) was adjusted to pH 7.4 with 0.015 ml of 2.5N NaOH. Approximately 5 mg of mal-sac-HNSA was added to the biotinylated polylysine and stirred at room temperature. Ten μl aliquots were removed from the mixture at timed intervals and diluted into 1.0 ml of 0.01M phosphate buffer at pH 7.0. The spectrum of each diluted aliquot was measured and the absorbance at 406 nm recorded. A total of 50 μl of 4.8N NaOH solution was then added to each aliquot, mixed, and the spectrum retaken.
# After 30 minutes of incubation time, the reaction was stopped using a Sephadex G-25 column, and the high molecular weight (biotin)4-polylysine-(sac-mal)18 was well separated from excess HNSA and unreacted mal-sac-HNSA.
# Solubility in water = format: physicochemical
# [4] = Stability in water and on storage; format: physicochemical; conditions: no nucleophiles added
# [5] = format: physicochemical; conditions: 50 μl of 4.8N NaOH added to aliquot in 1 ml pH 7.0 buffer
# Description: About 0.5 mg of the purified mal-sac HNSA ester from Example IA was dissolved in 1 ml of distilled water.
# The difference between the post-base and initial free HNSA concentration represents the concentration of ester. From the actual concentration of ester the amount of ester to be added to the protein solution to achieve the desired degree of substitution can be calculated.
smiles,measurement,setting,value
O=C1N[C@H]2[C@H](CS[C@H]2CCCCC(=O)Oc2ccc(S(=O)(=O)O)cc2[N+](=O)[O-])N1 [Biotin-HNSA Ester],reaction rate,polylysine,essentially linear
same,increase in fluorescence,cells,much larger increase in fluorescence
"O=C(CCCCCNc1ccc([N+](=O)[O-])cc1[N+](=O)[O-])Oc1ccc(S(=O)(=O)O)cc1[N+](=O)[O-] [N-2,4-dinitrophenyl-6-aminocaproic acid ester of HNSA]",conjugation efficiency,bovine serum albumin,more efficient than the same ester of N-hydroxysuccinimide
CN(C)c1cccc2c(S(=O)(=O)NCCCCCC(=O)Oc3ccc(S(=O)(=O)O)cc3[N+](=O)[O-])cccc12 [dansyl-sac-HNSA],increase in fluorescence intensity over unlabeled cells,[1],720 times
"O=C(CCCCCN1C(=O)C=CC1=O)Oc1ccc(S(=O)(=O)O)cc1[N+](=O)[O-] [mal-sac-HNSA, N-maleimido-6-aminocaproylHNSA]",Concentration of Ester,[2]; 0 minutes,1.56 × 10^-4 moles/1
same,Concentration of Ester,[2]; 5 minutes,1.16 × 10^-4 moles/1
same,Concentration of Ester,[2]; 9 minutes,1.03 × 10^-4 moles/1
same,Concentration of Ester,[2]; 14 minutes,1.11 × 10^-4 moles/1
same,ester reacted,[2]; 15 minutes of reaction time,2.6×10^-3 moles/1
same,reaction rate,streptavidin,essentially linear
same,reaction rate,[3],essentially linear
same,reaction rate,biotinylated polylysine,essentially linear
same,solubility in water,Solubility in water,dissolve fully in water
same,stability in water,[4],stable in water for several hours
same,hydrolysis by hydroxide,[5],rapidly hydrolyzed
same,Percent Ester Remaining,"avidin; 10 minutes, room temperature",81%
same,reaction rate,"avidin; 30 minutes, FIG. 3",linear
